In US11123355B2, “Antiviral benzyl-amine phosphodiamide compounds” (Merck Sharp & Dohme Corp., priority 2016, dated 2021):
Like-named read-outs stand apart in the source and are kept apart here.

Legend:
HIV-1 (H9/IIB strain) = experiment: Multiple Round HIV-1 Infection Assay (Viking Assay) in MT4-GFP cells; assay type: cell-based; details: inhibition of reproductive ratio R0
Method in brief: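 Inhibition of the reproductive ratio R0, derived from the rise in GFP-positive cells between ~48 h and ~72 h post-infection, was fitted by 4-parameter regression to give IC50. Cells infected at MOI ~0.01 were exposed to compound (typically 8.4 μM–0.42 nM final) in 10% or 50% normal human serum.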

[1] = Prodrug Stability Assay in Bio-Relevant Media (FaSSIF with Pancreatin); assay type: in vitro ADME; details: 0.5 mg/mL Pancreatin in FaSSIF, 37° C.; HPLC peak area of prodrug at 5 h divided by that at 0 h
Procedure: Prodrug Stability Assay in Bio-Relevant Media
The following assay was employed to evaluate the stability of the prodrugs in simulated gastrointestinal tract conditions. Preparation of fasted state simulated intestinal fluid (FaSSIF) using Phares SIF Powder was carried out according to protocols from Phare Drug Delivery AG (Baselland, Switzerland). For sample preparation, 10 μL stock solutions (10 mM) of prodrug substance in DMSO was added to 990 μL of 0.5 mg/mL Pancreatin solution (Fisher CAS #8049-47-6) in FaSSIF. Two samples were prepared for each compound. If the sample was a clear solution, it was directly analyzed by HPLC. If the sample was not clear, the sample was diluted with 100% MeCN, maintained at 37° C. and observed 5 h later. If the sample was clear, HPLC analysis was directly performed. If the sample was still not clear, the sample was diluted with 100% ACN and assayed by HPLC. All the samples were vortexed for 3 min and observed before injection. For the diluted samples, the area is multiplied by a dilution factor when the data is analyzed. The analysis was carried out with an Agilent 1100 series HPLC with autosampler. The column was a Poroshell 120 EC-C18, 4.6×50 mm, 2.7 μm. The flow rate was 1.8 mL/min, and the injection volume was 5 or 10 μL. UV detection was in the range 210-400 nm. The mobile phase consisted of solvent A (water plus 10 mM tetrabutylammonium bromide) and solvent B (acetonitrile) with a gradient of: 90% solvent A at 0 min, changing to 95% solvent B over 6 min, maintaining for 1.5 min, then reverting to 90% solvent A over 1.6 min. The HPLC peak area of the prodrug at 5 h was divided by the HPLC peak area of the prodrug at 0 h, to generate the % claimed parent ratio, which is summarized in Table 2 for gastrointestinal (GI) Tract stability.

[2] = MT4-GFP cells infected with HIV-1, 10% normal human serum, read-out: Viking, IC50 (10% NHS)
[3] = MT4-GFP cells infected with HIV-1, 50% normal human serum, read-out: Viking, IC50 (50% NHS)

Row | Compound | IC50 (HIV-1 (H9/IIB strain); [2]) | IC50 (HIV-1 (H9/IIB strain); [3]) | GI Tract stability (%) [1]
1 | CCCOC(=O)C(C)(C)NP(=O)(CO[C@H](C)Cn1cnc2c(N)ncnc21)N[C@H](C)c1ccc(OC(F)(F)F)cc1C (stereo partly drawn) [Example 21B, Propyl 2-(((R)-((((R)-1-(6-amino-9H-purin-9-yl)propan-2-yl)oxy)methyl)(((R)-1-(2-methyl-4-(trifluoromethoxy)phenyl)ethyl)amino)phos-phoryl)amino)-2-methylpropanoate and propyl 2-(((S)-((((R)-1-(6-amino-9H-purin-9-yl)propan-2-yl)oxy)methyl)(((R)-1-(2-methyl-4-(trifluoromethoxy)phenyl)ethyl)amino)phos-phoryl)amino)-2-methylpropanoate] | 1 nM | 5.8 nM | 71.5%
2 | CCCOC(=O)C(C)(C)NP(=O)(CO[C@H](C)Cn1cnc2c(N)ncnc21)N[C@H](c1cccc(OC)c1)C(F)(F)F (stereo partly drawn) [Example 25A, propyl 2-(((R)-((((R)-1-(6-amino-9H-purin-9-yl)propan-2-yl)oxy)methyl)(((R)-2,2,2-trifluoro-1-(3-methoxyphenyl)ethyl)amino)phosphoryl)a-mino)-2-methylpropanoate and propyl 2-(((S)-((((R)-1-(6-amino-9H-purin-9-yl)propan-2-yl)oxy)methyl)(((R)-2,2,2-trifluoro-1-(3-methoxyphenyl)ethyl)amino)phosphoryl)a-mino)-2-methylpropanoate] | 4.6 nM | 54 nM | 70.3%
3 | CCCOC(=O)C(C)(C)N[P@@](=O)(CO[C@H](C)Cn1cnc2c(N)ncnc21)N[C@H](C)c1ccc(Cl)cc1C [Example 29B, propyl 2-(((R)-((((R)-1-(6-amino-9H-purin-9-yl)propan-2-yl)oxy)methyl)(((R)-1-(4-chloro-2-methylphenyl)ethyl)amino)phosphoryl)ami-no)-2-methylpropanoate and propyl 2-(((S)-((((R)-1-(6-amino-9H-purin-9-yl)propan-2-yl)oxy)methyl)(((R)-1-(4-chloro-2-methyphenyl)ethyl)amino)phosphoryl)ami-no)-2-methylpropanoate] | 2.5 nM | 21 nM | 12.1%
4 | CCCOC(=O)C(C)(C)NP(=O)(CO[C@H](C)Cn1cnc2c(N)ncnc21)N[C@H](C)c1ccc(C#N)cc1 (stereo partly drawn) [Example 31B, propyl 2-(((R)-((((R)-1-(6-amino-9H-purin-9-yl)propan-2-yl)oxy)methyl)(((R)-1-(4-cyanophenyl)ethyl)amino)phosphoryl)ami-no)-2-methylpropanoate and propyl 2-(((S)-((((R)-1-(6-amino-9H-purin-9-yl)propan-2-yl)oxy)methyl)(((R)-1-(4-cyanophenyl)ethyl)amino)phosphoryl)ami-no)-2-methylpropanoate] | 8.8 nM | 110 nM | 90.6%
5 | CCCOC(=O)C(C)(C)N[P@](=O)(CO[C@H](C)Cn1cnc2c(N)ncnc21)N(C)[C@H](C)c1ccc(OC(F)(F)F)cc1 [Example 33B, propyl 2-(((R)-((((R)-1-(6-amino-9H-purin-9-yl)propan-2-yl)oxy)methyl)(methyl((R)-1-(4-(trifluoromethoxy)phenyl)ethyl)amino)phos-phoryl)amino)-2-methylpropanoate and propyl 2-(((S)-((((R)-1-(6-amino-9H-purin-9-yl)propan-2-yl)oxy)methyl)(methyl((R)-1-(4-(trifluoromethoxy)phenyl)ethyl)amino)phos-phoryl)amino)-2-methylpropanoate] | 2.2 nM | 7.1 nM | 97.2%
6 | CC(C)OC(=O)C(C)(C)NP(=O)(CO[C@H](C)Cn1cnc2c(N)ncnc21)N[C@H](C)c1ccc(OC(F)(F)F)cc1 (stereo partly drawn) [Example 34B, isopropyl 2-(((R)-((((R)-1-(6-amino-9H-purin-9-yl)propan-2-yl)oxy)methyl)(((R)-1-(4-(trifluoromethoxy)phenyl)ethyl)amino)phos-phoryl)amino)-2-methylpropanoate and isopropyl 2-(((S)-((((R)-1-(6-amino-9H-purin-9-yl)propan-2-yl)oxy)methyl)(((R)-1-(4-(trifluoromethoxy)phenyl)ethyl)amino)phos-phoryl)amino)-2-methylpropanoate] | 1.5 nM | 7.9 nM | 67.4%
7 | CC(C)OC(=O)C(C)(C)N[P@@](=O)(CO[C@H](C)Cn1cnc2c(N)ncnc21)N[C@H](C)c1ccc(Cl)cc1 [Example 35B, isopropyl 2-(((R)-((((R)-1-(6-amino-9H-purin-9-yl)propan-2-yl)oxy)methyl)(((R)-1-(4-chlorophenyl)ethyl)amino)phosphoryl)ami-no)-2-methylpropanoate and isopropyl 2-(((S)-((((R)-1-(6-amino-9H-purin-9-yl)propan-2-yl)oxy)methyl)(((R)-1-(4-chlorophenyl)ethyl)amino)phosphoryl)ami-no)-2-methylpropanoate] | 2.9 nM | 22 nM | 70.5%
8 | CC(C)OC(=O)C(C)(C)N[P@@](=O)(CO[C@H](C)Cn1cnc2c(N)ncnc21)NC1(c2ccc(Cl)cc2)CC1 [Example 37B, isopropyl 2-(((R)-((((R)-1-(6-amino-9H-purin-9-yl)propan-2-yl)oxy)methyl)((1-(4-chlorophenyl)cyclopropyl)amino)phos-phoryl)amino)-2-methylpropanoate and isopropyl 2-(((S)-((((R)-1-(6-amino-9H-purin-9-yl)propan-2-yl)oxy)methyl)((1-(4-chlorophenyl)cyclopropyl)amino)phos-phoryl)amino)-2-methylpropanoate] | 5.1 nM | 30 nM | 21.1%
9 | isopropyl 2-(((R)-((((R)-1-(6-amino-9H- purin-9-yl)propan-2-yl)oxy)methyl)((2-(4- chlorophenyl)propan-2- yl)amino)phosphoryl)amino)-2- methylpropanoate and isopropyl 2-(((S)-((((R)-1-(6-amino-9H- purin-9-yl)propan-2-yl)oxy)methyl)((2-(4- chlorophenyl)propan-2- yl)amino)phosphoroyl)amino)-2- methylpropanoate [Example 36A] | 3.2 nM | 37 nM | 20.2%
10 | propyl 2-(((R)-((((R)-1-(6-amino-9H-purin- 9-yl)propan-2-yl)oxy)methyl)(((R)-2,2,2- trifluoro-1-(p- tolyl)ethyl)amino)phosphoryl)amino)-2- methylpropanoate and propyl 2-(((S)-((((R)-1-(6-amino-9H-purin- 9-yl)propan-2-yl)oxy)methyl)(((R)-2,2,2- trifluoro-1-(p- tolyl)ethyl)amino)phosphoryl)amino)-2- methylpropanoate [Example 26A] | 4.7 nM | 45 nM | 75.3%
